Legend:
Assay in all cases: Radiolabeled ATP kinase assay, panel of 371 kinases (Table S6)
Format in all cases: biochemical
[1] = target: T1, panel of 371 human kinases (Homo sapiens, UniProt O60285); settings: ARK5/NUAK1; 0.1 μM; 10 μM ATP; read-out: % Enzyme Activity (relative to DMSO controls)
T1 construct: purchased Reaction Biology Corp
Description: (§1) ; FIG. 38C). […]. Further targeted analyses, such as genetic knock-down or knock-out, may be warranted to parse the role of these additional kinases in our model of neurodegeneration.

[2] = target: T2, panel of 371 human kinases (Homo sapiens, UniProt O95819); settings: for remaining activity at 0.1 µM: HGK/MAP4K4, 10 μM ATP, read-out: % Enzyme Activity (relative to DMSO controls)
T2 construct: purchased Reaction Biology Corp
T2 sequence (O95819 whole entry): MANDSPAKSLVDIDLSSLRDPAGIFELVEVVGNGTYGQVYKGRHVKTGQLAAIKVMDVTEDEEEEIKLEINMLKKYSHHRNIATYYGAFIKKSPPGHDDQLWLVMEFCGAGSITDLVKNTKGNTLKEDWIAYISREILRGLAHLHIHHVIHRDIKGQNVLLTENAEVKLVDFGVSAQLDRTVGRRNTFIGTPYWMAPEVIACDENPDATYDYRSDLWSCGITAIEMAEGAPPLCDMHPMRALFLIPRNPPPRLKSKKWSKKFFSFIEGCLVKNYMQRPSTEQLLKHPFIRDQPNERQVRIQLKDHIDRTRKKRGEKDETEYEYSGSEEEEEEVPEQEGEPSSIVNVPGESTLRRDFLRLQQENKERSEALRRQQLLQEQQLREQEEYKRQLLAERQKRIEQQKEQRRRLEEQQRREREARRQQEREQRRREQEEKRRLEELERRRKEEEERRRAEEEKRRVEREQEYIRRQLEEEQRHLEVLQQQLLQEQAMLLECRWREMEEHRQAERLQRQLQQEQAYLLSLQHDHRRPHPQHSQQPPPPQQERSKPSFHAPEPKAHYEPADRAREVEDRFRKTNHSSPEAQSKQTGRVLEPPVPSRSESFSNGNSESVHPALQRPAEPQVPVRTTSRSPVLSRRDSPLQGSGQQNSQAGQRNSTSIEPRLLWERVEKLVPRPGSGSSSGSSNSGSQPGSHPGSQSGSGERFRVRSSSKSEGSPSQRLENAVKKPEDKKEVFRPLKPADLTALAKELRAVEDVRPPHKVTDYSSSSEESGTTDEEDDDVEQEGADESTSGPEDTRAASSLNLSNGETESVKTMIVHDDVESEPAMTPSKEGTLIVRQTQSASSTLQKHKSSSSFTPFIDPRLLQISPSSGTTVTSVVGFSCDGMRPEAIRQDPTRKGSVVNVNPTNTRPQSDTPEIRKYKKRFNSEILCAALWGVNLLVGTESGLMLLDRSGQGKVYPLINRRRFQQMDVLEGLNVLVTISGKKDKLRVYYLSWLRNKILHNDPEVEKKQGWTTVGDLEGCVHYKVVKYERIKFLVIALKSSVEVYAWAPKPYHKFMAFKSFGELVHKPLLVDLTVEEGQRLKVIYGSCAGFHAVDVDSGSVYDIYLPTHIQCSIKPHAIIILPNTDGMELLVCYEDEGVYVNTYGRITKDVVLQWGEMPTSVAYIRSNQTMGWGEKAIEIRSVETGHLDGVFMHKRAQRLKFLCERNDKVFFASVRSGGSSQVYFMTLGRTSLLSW
Description: as §1

[3] = target: T3, panel of 371 human kinases (Homo sapiens, UniProt P06241); settings: FYN; 0.1 μM; 10 μM ATP; read-out: % Enzyme Activity (relative to DMSO controls)
T3 construct: purchased Reaction Biology Corp
Description: as §1

[4] = target: T4, panel of 371 human kinases (Homo sapiens, UniProt P07948); settings: LYN; 0.1 μM; 10 μM ATP; read-out: % Enzyme Activity (relative to DMSO controls)
T4 construct: purchased Reaction Biology Corp
Description: as §1

[5] = target: T5, panel of 371 human kinases (Homo sapiens, UniProt P12931); settings: c-Src; 0.1 μM; 10 μM ATP; read-out: % Enzyme Activity (relative to DMSO controls)
T5 construct: purchased Reaction Biology Corp
T5 sequence (P12931 whole entry): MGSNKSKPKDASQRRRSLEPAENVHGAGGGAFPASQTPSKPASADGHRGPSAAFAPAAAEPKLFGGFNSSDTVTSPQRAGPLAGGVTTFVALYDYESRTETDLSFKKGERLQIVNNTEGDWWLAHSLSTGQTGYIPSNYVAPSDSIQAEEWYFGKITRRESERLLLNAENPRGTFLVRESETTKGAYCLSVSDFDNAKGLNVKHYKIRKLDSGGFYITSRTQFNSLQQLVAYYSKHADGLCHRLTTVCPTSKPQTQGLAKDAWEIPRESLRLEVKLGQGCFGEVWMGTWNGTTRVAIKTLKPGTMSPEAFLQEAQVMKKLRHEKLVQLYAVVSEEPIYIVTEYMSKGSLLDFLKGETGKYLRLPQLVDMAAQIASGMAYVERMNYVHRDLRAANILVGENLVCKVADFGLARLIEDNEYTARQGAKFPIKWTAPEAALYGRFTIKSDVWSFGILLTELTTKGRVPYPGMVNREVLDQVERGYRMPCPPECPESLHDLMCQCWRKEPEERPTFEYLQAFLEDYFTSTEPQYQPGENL
Description: as §1

[6] = target: T6, panel of 371 human kinases (Homo sapiens, UniProt P27448); settings: MARK3; 0.1 μM; 10 μM ATP; read-out: % Enzyme Activity (relative to DMSO controls)
T6 construct: purchased Reaction Biology Corp
Description: as §1

[7] = target: T7, panel of 371 human kinases (Homo sapiens, UniProt P34947); settings: GRK5; 0.1 μM; 10 μM ATP; read-out: % Enzyme Activity (relative to DMSO controls)
T7 construct: purchased Reaction Biology Corp
Description: as §1

[8] = target: T8, panel of 371 human kinases (Homo sapiens, UniProt P36888); settings: FLT3; 0.1 μM; 10 μM ATP; read-out: % Enzyme Activity (relative to DMSO controls)
T8 construct: purchased Reaction Biology Corp
T8 sequence (P36888 27-993): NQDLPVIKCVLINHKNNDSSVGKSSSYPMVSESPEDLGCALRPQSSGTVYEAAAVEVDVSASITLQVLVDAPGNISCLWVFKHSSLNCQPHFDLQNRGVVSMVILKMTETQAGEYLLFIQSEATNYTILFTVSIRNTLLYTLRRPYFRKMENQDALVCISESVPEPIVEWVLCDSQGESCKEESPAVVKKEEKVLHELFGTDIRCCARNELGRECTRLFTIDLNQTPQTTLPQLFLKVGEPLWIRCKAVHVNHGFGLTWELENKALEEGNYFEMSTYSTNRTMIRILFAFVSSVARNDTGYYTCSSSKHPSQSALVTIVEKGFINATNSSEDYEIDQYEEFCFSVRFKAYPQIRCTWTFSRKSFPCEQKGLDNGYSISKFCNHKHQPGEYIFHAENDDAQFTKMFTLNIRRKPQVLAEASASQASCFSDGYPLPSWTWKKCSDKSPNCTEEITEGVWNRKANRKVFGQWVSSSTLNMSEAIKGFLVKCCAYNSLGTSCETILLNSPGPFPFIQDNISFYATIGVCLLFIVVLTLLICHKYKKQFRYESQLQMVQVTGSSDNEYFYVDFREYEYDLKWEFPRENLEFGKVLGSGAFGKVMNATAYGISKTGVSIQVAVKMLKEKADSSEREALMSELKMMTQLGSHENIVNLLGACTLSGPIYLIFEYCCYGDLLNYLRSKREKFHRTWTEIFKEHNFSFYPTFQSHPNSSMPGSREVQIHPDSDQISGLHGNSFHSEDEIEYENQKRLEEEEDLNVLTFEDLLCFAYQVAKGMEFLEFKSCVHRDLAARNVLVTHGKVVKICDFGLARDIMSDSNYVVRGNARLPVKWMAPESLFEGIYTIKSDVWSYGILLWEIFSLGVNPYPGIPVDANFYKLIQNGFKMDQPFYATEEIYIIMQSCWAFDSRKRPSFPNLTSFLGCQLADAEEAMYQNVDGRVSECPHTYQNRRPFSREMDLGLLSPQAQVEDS
Description: as §1

[9] = target: T9, panel of 371 human kinases (Homo sapiens, UniProt P43250); settings: GRK6; 0.1 μM; 10 μM ATP; read-out: % Enzyme Activity (relative to DMSO controls)
T9 construct: purchased Reaction Biology Corp
Description: as §1

[10] = target: T10, panel of 371 human kinases (Homo sapiens, UniProt P43403); settings: ZAP70; 0.1 μM; 10 μM ATP; read-out: % Enzyme Activity (relative to DMSO controls)
T10 construct: purchased Reaction Biology Corp
Description: as §1

[11] = target: T11, panel of 371 human kinases (Homo sapiens, UniProt P51617); settings: IRAK1; 0.1 μM; 10 μM ATP; read-out: % Enzyme Activity (relative to DMSO controls)
T11 construct: purchased Reaction Biology Corp
Description: as §1

[12] = target: T12, panel of 371 human kinases (Homo sapiens, UniProt P68400); settings: CK2a; 0.1 μM; 10 μM ATP; read-out: % Enzyme Activity (relative to DMSO controls)
T12 construct: purchased Reaction Biology Corp
T12 sequence (P68400 whole entry): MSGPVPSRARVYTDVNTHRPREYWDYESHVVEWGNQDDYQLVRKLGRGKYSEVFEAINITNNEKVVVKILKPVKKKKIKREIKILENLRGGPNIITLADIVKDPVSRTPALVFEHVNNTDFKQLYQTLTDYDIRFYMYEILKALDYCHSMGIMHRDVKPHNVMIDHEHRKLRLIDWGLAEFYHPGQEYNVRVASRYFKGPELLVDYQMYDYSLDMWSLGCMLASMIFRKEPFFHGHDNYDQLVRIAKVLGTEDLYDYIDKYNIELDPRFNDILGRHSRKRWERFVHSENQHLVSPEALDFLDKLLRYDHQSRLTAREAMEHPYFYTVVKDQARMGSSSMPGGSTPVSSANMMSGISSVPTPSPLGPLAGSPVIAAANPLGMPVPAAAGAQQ
Description: as §1

[13] = target: T13, panel of 371 human kinases (Homo sapiens, UniProt Q13557); settings: CAMK2d; 0.1 μM; 10 μM ATP; read-out: % Enzyme Activity (relative to DMSO controls)
T13 construct: purchased Reaction Biology Corp
Description: as §1

[14] = target: T14, panel of 371 human kinases (Homo sapiens, UniProt Q13882); settings: BRK; 0.1 μM; 10 μM ATP; read-out: % Enzyme Activity (relative to DMSO controls)
T14 construct: purchased Reaction Biology Corp
Description: as §1

[15] = target: T15, panel of 371 human kinases (Homo sapiens, UniProt Q15303); settings: ERBB4/HER4; 0.1 μM; 10 μM ATP; read-out: % Enzyme Activity (relative to DMSO controls)
T15 construct: purchased Reaction Biology Corp
Description: as §1

[16] = target: T16, panel of 371 human kinases (Homo sapiens, UniProt Q6VAB6); settings: KSR2; 0.1 μM; 10 μM ATP; read-out: % Enzyme Activity (relative to DMSO controls)
T16 construct: purchased Reaction Biology Corp
Description: as §1

[17] = target: T17, panel of 371 human kinases (Homo sapiens, UniProt Q8IWQ3); settings: BRSK2; 0.1 μM; 10 μM ATP; read-out: % Enzyme Activity (relative to DMSO controls)
T17 construct: purchased Reaction Biology Corp
T17 sequence (Q8IWQ3 whole entry): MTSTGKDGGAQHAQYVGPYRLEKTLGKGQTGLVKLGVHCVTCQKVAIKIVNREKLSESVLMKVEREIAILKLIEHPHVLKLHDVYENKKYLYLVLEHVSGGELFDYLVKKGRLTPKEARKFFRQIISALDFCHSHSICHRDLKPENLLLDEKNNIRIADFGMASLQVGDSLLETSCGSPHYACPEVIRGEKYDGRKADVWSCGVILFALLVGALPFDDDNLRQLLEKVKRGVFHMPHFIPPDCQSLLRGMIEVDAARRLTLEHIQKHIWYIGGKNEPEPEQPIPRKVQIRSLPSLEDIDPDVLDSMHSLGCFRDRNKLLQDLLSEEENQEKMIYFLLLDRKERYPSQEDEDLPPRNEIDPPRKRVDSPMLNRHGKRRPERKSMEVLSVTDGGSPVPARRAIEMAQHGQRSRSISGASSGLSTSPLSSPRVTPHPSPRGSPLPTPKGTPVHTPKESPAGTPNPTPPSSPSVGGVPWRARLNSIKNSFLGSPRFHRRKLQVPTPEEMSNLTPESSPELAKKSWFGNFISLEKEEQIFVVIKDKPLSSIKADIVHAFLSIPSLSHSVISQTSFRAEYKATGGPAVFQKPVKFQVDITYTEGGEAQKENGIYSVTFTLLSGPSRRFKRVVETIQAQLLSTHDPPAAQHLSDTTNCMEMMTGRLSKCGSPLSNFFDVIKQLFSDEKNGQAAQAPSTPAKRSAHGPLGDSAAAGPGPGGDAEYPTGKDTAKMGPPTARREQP
Description: as §1

[18] = target: T18, panel of 371 human kinases (Homo sapiens, UniProt Q8TDC3); settings: BRSK1; 0.1 μM; 10 μM ATP; read-out: % Enzyme Activity (relative to DMSO controls)
T18 construct: purchased Reaction Biology Corp
T18 sequence (Q8TDC3 whole entry): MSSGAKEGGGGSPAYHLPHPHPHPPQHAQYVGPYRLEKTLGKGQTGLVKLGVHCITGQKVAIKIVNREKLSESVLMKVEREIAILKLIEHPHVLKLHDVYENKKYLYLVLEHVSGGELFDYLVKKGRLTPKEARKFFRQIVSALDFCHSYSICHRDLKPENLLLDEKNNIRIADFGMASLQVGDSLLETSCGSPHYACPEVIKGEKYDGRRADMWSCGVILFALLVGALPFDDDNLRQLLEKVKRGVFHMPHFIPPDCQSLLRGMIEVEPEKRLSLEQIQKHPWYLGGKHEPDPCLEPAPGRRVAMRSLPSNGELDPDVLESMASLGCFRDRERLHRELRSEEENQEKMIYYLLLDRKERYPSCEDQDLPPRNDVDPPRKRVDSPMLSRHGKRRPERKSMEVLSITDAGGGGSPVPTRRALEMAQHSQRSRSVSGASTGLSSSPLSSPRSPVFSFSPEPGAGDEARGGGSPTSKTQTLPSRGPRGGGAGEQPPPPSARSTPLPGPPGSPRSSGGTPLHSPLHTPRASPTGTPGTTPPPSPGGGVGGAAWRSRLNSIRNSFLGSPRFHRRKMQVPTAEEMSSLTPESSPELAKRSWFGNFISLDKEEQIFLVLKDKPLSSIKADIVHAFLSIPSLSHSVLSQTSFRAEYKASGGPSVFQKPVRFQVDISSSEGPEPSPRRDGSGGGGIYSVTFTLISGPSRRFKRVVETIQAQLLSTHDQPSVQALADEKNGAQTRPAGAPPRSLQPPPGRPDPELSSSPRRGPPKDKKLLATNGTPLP
Description: as §1

[19] = target: T19, panel of 371 human kinases (Homo sapiens, UniProt Q99683); settings: ASK1/MAP3K5; 0.1 μM; 10 μM ATP; read-out: % Enzyme Activity (relative to DMSO controls)
T19 construct: purchased Reaction Biology Corp
Description: as §1

[20] = target: T20, panel of 371 human kinases (Homo sapiens, UniProt Q9H093); settings: SNARK/NUAK2; 0.1 μM; 10 μM ATP; read-out: % Enzyme Activity (relative to DMSO controls)
T20 construct: purchased Reaction Biology Corp
Description: as §1

[21] = target: T21, panel of 371 human kinases (Homo sapiens, UniProt Q9HC98); settings: NEK6; 0.1 μM; 10 μM ATP; read-out: % Enzyme Activity (relative to DMSO controls)
T21 construct: purchased Reaction Biology Corp
T21 sequence (Q9HC98 whole entry): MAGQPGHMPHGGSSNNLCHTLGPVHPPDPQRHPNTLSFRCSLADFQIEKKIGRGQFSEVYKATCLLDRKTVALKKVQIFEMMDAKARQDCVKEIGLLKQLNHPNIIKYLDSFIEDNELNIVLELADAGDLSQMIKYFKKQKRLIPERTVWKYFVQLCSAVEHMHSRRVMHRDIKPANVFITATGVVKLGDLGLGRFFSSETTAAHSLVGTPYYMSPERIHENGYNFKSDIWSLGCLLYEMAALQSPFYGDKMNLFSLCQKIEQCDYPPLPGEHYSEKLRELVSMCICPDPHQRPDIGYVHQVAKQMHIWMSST
Description: as §1

[22] = target: T22, panel of 371 human kinases (Homo sapiens, UniProt Q9NRM7); settings: LATS2; 0.1 μM; 10 μM ATP; read-out: % Enzyme Activity (relative to DMSO controls)
T22 construct: purchased Reaction Biology Corp
Description: as §1

[23] = target: T23, panel of 371 human kinases (Homo sapiens, UniProt Q9NYY3); settings: PLK2; 0.1 μM; 10 μM ATP; read-out: % Enzyme Activity (relative to DMSO controls)
T23 construct: purchased Reaction Biology Corp
Description: as §1

[24] = target: T24, panel of 371 human kinases (Homo sapiens, UniProt Q9UPZ9); settings: LCK2/ICK; 0.1 μM; 10 μM ATP; read-out: % Enzyme Activity (relative to DMSO controls)
T24 construct: purchased Reaction Biology Corp
Description: as §1

Structure (SMILES)	remaining activity at 0.1 µM [1]	remaining activity at 0.1 µM [2]	remaining activity at 0.1 µM [3]	remaining activity at 0.1 µM [4]	remaining activity at 0.1 µM [5]	remaining activity at 0.1 µM [6]	remaining activity at 0.1 µM [7]	remaining activity at 0.1 µM [8]	remaining activity at 0.1 µM [9]	remaining activity at 0.1 µM [10]	remaining activity at 0.1 µM [11]	remaining activity at 0.1 µM [12]	remaining activity at 0.1 µM [13]	remaining activity at 0.1 µM [14]	remaining activity at 0.1 µM [15]	remaining activity at 0.1 µM [16]	remaining activity at 0.1 µM [17]	remaining activity at 0.1 µM [18]	remaining activity at 0.1 µM [19]	remaining activity at 0.1 µM [20]	other results
CN1CCN(Cc2ccc(-c3cnc4[nH]cc(-c5ccc6[nH]ccc6c5)c4c3)cc2)CC1 [Compound 1, 3-(1H-Indol-5-yl)-5-(4-((4-methylpiperazin-1-yl)methyl)phenyl)-1H-pyrrolo[2,3-b]pyridine, reference compound]	26.9%	20.2%	92.1%	90.3%	86%	83.2%	98.2%	22.3%	91.5%	103%	86.2%	100%	97%	86.4%	104%	102%	98%	80.8%	103%	82.8%	remaining activity at 0.1 µM [21]: 92.7%; remaining activity at 0.1 µM [22]: 83.2%; remaining activity at 0.1 µM [23]: 97.2%; remaining activity at 0.1 µM [24]: 111%
OCCN1CCN(Cc2ccc(-c3cnc4[nH]cc(-c5cccc(Cl)c5)c4c3)cc2)CC1 [Compound 12k, 2-(4-(4-(3-(3-Chlorophenyl)-1H-pyrrolo[2,3-b]pyridin-5-yl)benzyl)piperazin-1-yl)ethan-1-ol]	14.4%	1.35%	96.3%	99.3%	88.1%	46.6%	93.3%	29.4%	95.2%	102%	73.2%	110%	81.3%	95%	97.2%	106%	93.5%	83.6%	95.7%	59.5%	fold change in HGK activity following 12k exposure relative to 1 ([2]; 0.025 μM): 14.92 fold; remaining activity at 0.1 µM [21]: 95.1%; remaining activity at 0.1 µM [22]: 88.1%; remaining activity at 0.1 µM [23]: 101%; remaining activity at 0.1 µM [24]: 109%

Reference: patent US12227500B2, “Substituted pyrrolo[2,3-b]pyridines for suppressing toxic endoplasmic reticulum stress” (THE TRUSTEES OF COLUMBIA UNIVERSITY IN THE CITY OF NEW YORK, priority 2018, dated 2025)
